Laboratory results published in US8048899B2, “Compounds which selectively modulate the CB2 receptor” (Boehringer Ingelheim International GmbH, priority 2008, dated 2011).
Like-named read-outs stand apart in the source and are kept apart here.

What was measured:
human CB2R = target: T1, human CB2R (Homo sapiens, UniProt P34972); experiment: CB2R mediated modulation of cAMP synthesis; assay type: cell-based
T1 construct: host or cells: CHO cells
Method: B. CB2R Mediated Modulation of cAMP Synthesis:
Compounds of the invention are evaluated for their CB2 agonist or inverse agonistic activity in accordance with the following experimental method.
(§1) CHO cells expressing human CB2R (Euroscreen) are plated at a density of 5000 cells per well in 384 well plates and incubated overnight at 37° C. After removing the media, the cells are treated with test compounds diluted in stimulation buffer containing 1 mM IBMX, 0.25% BSA and 10 uM Forskolin. The assay is incubated for 30 minutes at 37° C. Cells are lysed and the cAMP concentration is measured using DiscoverX-XS cAMP kit, following the manufacturer's protocol. In this setting, agonists will decrease forskolin induced production of cAMP while inverse agonists will further increase forskolin induced production of cAMP. EC50 of agonists are calculated as follows. The maximal amount of cAMP produced by forskolin compared to the level of cAMP inhibited by 1 uM CP55940 is defined as 100%. […] Data is analyzed using a four-parameter logistic model. (Model 205 of XLfit 4.0).

human CB1R = target: T2, human CB1R (Homo sapiens, UniProt P21554); experiment: CB1R mediated modulation of cAMP synthesis; assay type: cell-based
T2 construct: host or cells: CHO cells
Method: C. CB1R Mediated Modulation of cAMP Synthesis:
Compounds of the invention are evaluated for their CB1 agonist or inverse agonistic activity in accordance with the following experimental method.
as §1, with “CB1R” for “CB2R”

[1] = CHO cells expressing human CB2R, inhibition of forskolin-stimulated cAMP synthesis, read-out: CB2 EC50
[2] = CHO cells expressing human CB1R, inhibition of forskolin-stimulated cAMP synthesis, read-out: CB1 EC50

T2 sequence (P21554 whole entry): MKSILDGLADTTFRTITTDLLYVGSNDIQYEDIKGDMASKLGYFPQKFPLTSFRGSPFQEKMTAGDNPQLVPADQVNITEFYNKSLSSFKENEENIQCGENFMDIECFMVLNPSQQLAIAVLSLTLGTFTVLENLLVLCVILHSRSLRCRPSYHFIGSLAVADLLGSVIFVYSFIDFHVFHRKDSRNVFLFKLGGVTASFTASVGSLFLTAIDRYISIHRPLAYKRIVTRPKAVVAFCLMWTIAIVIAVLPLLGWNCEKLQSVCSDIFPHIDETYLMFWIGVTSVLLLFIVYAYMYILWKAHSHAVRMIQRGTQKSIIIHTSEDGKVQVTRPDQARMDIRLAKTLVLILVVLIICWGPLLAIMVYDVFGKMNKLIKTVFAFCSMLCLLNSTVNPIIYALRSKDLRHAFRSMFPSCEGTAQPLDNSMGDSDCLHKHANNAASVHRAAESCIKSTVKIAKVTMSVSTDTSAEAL
T1 sequence (P34972 whole entry): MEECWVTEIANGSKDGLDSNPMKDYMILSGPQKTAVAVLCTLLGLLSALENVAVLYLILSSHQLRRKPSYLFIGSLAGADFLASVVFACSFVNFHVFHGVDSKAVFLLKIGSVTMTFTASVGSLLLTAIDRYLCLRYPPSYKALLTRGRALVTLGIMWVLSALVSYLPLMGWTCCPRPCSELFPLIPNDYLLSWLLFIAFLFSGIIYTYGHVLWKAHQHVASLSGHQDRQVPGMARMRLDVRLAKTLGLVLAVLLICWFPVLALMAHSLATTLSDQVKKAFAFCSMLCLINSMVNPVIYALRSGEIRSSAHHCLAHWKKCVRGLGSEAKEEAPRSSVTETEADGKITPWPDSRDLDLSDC

Structure (SMILES)	EC50 (human CB2R)	EC50 (human CB1R)	EC50 (human CB2R; [1])	EC50 (human CB1R; [2])
COc1ccc(-c2nnc(NC(=O)C(C)(C)S(=O)(=O)C[C@H]3CCOC3)[nH]2)cc1	90 nM	> 50000 nM	–	–
CC(C)(CO)c1cc(NC(=O)C(C)(C)S(=O)(=O)CCCC(F)(F)F)no1	25 nM	> 20000 nM	–	–
CC(C)(C(=O)Nc1cc(C2(CO)CC2)no1)S(=O)(=O)CCCC(F)(F)F	–	–	247 nM	> 50000 nM
COCC(C)(C)c1cc(NC(=O)C(C)(C)S(=O)(=O)CC2CCOCC2)on1	29 nM	> 20000 nM	–	–
CC(C)(CO)c1cc(NC(=O)C(C)(C)S(=O)(=O)CC2CCC2)no1	96 nM	> 50000 nM	–	–
CC(C)(CO)c1cc(NC(=O)C(C)(C)S(=O)(=O)CC2CCC2)on1	82 nM	> 20000 nM	–	–
CCOCC(C)(C)c1cc(NC(=O)C(C)(C)S(=O)(=O)C2CCOCC2)on1	3.6 nM	> 20000 nM	–	–
CC(C)(CO)c1cc(NC(=O)C(C)(C)S(=O)(=O)CC2CCOCC2)on1	–	–	39 nM	> 50000 nM
COc1ccc(-c2nnc(NC(=O)C(C)(C)S(=O)(=O)CC(C)C)[nH]2)cc1	69 nM	> 20000 nM	–	–
CC(C)(O)c1cc(NC(=O)C(C)(C)S(=O)(=O)CCCC(F)(F)F)on1	49 nM	> 20000 nM	–	–
CC(C)(C(=O)Nc1nnc(-c2ccc(O)cc2)[nH]1)S(=O)(=O)C1CCOCC1	5 nM	> 20000 nM	–	–
CC(C)(C(=O)Nc1nc(-c2ccc(O)cc2)n[nH]1)S(=O)(=O)C1CCCC1	36 nM	> 50000 nM	–	–
COCC(C)(C)c1cc(NC(=O)C(C)(C)S(=O)(=O)C2CCOCC2)on1	3.1 nM	> 20000 nM	–	–
COCC(C)(C)c1cc(NC(=O)C(C)(C)S(=O)(=O)CC2CC2)on1	–	–	120 nM	> 50000 nM
CC(C)(C(=O)Nc1cc(C2(CO)CCCC2)no1)S(=O)(=O)CC1CCOCC1	206 nM	> 50000 nM	–	–
CC(C)(C(=O)Nc1nnc(-c2ccc(OC(F)(F)F)cc2)[nH]1)S(=O)(=O)CC1CCOCC1	–	–	337 nM	> 20000 nM
CC(C)(C(=O)Nc1cc(C2(CO)CCCC2)no1)S(=O)(=O)C1CCOCC1	15 nM	> 50000 nM	–	–
